Assay results: article PMC8667925, “New 1,2,4-oxadiazole derivatives with positive mGlu4 receptor modulation activity and antipsychotic-like properties” (Journal of Enzyme Inhibition and Medicinal Chemistry, 2021)
Entries after “also recorded” stand apart in the source; their conditions may differ.

What was measured:
mGlu7 receptor = biological target: T1, mGlu7 receptor (Homo sapiens, UniProt Q14831); experiment: cAMP accumulation assay in cells expressing mGlu7 receptor (agonist, PAM, NAM modes); type: cell-based; conditions: 10 µM, agonist mode
T1 construct: mGlu4 receptor NM_000841, mGlu7 receptor NM_000844.2, and mGlu8 receptor NM_000845; expressed in transfected cells; host or cells: T-REx 293
T1 sequence (Q14831 35-915): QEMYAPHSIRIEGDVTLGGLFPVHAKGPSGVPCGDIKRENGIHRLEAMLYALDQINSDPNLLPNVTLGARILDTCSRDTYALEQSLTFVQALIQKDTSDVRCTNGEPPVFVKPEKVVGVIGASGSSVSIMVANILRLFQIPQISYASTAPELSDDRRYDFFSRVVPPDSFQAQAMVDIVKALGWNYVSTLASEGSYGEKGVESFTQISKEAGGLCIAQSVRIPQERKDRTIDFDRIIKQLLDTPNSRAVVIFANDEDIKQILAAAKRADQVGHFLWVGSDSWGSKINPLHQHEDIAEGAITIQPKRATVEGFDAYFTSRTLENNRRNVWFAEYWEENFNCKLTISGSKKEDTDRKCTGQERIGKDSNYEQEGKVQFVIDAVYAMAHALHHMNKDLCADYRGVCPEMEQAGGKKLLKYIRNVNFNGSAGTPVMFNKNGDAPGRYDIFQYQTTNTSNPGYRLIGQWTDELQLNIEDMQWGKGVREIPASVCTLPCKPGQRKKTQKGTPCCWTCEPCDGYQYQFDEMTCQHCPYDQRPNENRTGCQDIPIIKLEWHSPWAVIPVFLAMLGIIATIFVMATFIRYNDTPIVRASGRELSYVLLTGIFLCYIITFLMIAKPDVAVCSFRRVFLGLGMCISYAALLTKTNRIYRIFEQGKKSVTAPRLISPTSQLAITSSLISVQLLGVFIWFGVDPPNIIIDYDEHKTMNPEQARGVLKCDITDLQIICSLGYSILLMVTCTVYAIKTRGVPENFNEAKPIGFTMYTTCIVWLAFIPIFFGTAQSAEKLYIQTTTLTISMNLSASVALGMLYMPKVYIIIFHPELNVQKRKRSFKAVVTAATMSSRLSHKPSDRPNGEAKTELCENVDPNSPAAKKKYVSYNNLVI
Protocol: (§1) The compounds were tested in the agonist, PAM (in the presence of EC20 concentration of L-Glu) or NAM (with EC80 of L-Glu) modes of forskolin-induced cAMP using T-REx 293 cells expressing the protein of a given receptor.
Figure 4. The activity of compounds 34, 37, 49, 52, 60, 62 and reference drugs MMPIP (a selective NAM of mGlu7 receptor) and AZ12216052 (a PAM of mGlu8 receptor) tested at a concentration of 10 μM in the cAMP accumulation assay in cells expressing mGlu7 and mGlu8 receptors. The percent activity refers to two extreme FRET signals: 0% corresponds to forskolin treatment alone and 100% to maximal FRET signal for the control cells (without any treatment). A/D – agonistic activity; B/E – PAM activity measured in the presence of L-Glu at the EC20 concentration (0.1 mM for mGlu7 receptor, and 1 μM for mGlu8 receptor); C/F – NAM activity measured in the presence of L-Glu at the EC80 concentration (1 mM for mGlu7 receptor, 10 μM for Glu8 receptor).
(§2) Determination of the intracellular cAMP through a homogeneous time-resolved fluorescence (HTRF) cAMP dynamic 2 kit from Cisbio (Codolet, France) was described previously by Chruścicka et al.[91]. Briefly, cells were grown in DMEM supplemented with 10% foetal bovine serum (FBS) (tetracycline free). Forty-eight hours before the experiments, mGlu receptor expression was induced by the addition of 0.75 µg/mL tetracycline. Twenty hours before the experiment, FBS and L-Glu were removed from the medium. Thereafter, the cells were scraped and centrifuged. A cell pellet was suspended in Hanks-HEPES (130 mM NaCl, 5.4 mM KCl, 1.8 mM CaCl2, 0.8 mM MgSO4, 0.9 mM NaH2PO4, 20 mM HEPES, and 3.25 mM glucose; pH 7.4). Then, the cell suspension was incubated in the presence of 10 µM forskolin (or 3 µM forskolin for mGlu7 receptor), the agonist L-glutamate and a compound for 5 min. Next, 10 µl of the cell suspension was mixed with 5 µl of cAMP-d2 conjugate and 5 µL of anti-cAMP cryptate conjugate. After 1 h of incubation at rt, the fluorescence at 620 nm and 665 nm was read (Tecan Infinite M1000). The results were calculated as the 665 nm/620 nm ratio multiplied by 10^4. Each sample was prepared in triplicate.

Albino Swiss mice = experiment: modified stress-induced hyperthermia (SIH) in singly housed mice; type: in vivo
Protocol: The compounds were dissolved in a small amount of 100% EtOH and then adjusted with 20% cyclodextrin, and the pH was adjusted to 6.0. The investigated compounds were administered intraperitoneally (i.p.) 60 min before the behavioural test. Control drugs i.e. diazepam, clozapine and imipramine (Sigma–Aldrich, St. Louis, USA), were administered i.p. 60 min before the behavioural test. Cyclodextrin (20%) was used as a vehicle. All solutions were prepared immediately prior to the experiments and were administered at a constant volume of 10 ml/kg.
The procedure for modified stress-induced hyperthermia was adapted from Van der Heyden[93] and based on the procedure introduced by Borsini[94]. Each experimental group consisted of eight to ten animals. The animals were housed individually in a 26 × 21 × 14 cm Macolon cage 24 h before testing. For this assay, the body temperature was measured for each mouse at t = 0 min (T1) and t = +15 min (T2). Albino Swiss mice were placed into a new cage immediately following T1, with the difference in temperature (T2−T1) used as the measure of stress-induced hyperthermia. […] A comparison between T1 in vehicle-treated mice and those administered the test compound was used to determine whether the agent affects body temperature alone. Diazepam (5 mg/kg) was used as the positive control. The rectal temperature was measured to the nearest 0.1 °C with a Physitemp Theralert thermometer, TH-5, Clifton NJ, USA, with the temperature sensor for mice, Type T, Copper-Constantan Thermocouple, Braintree Scientific Inc. The lubricated thermistor probe (2 mm diameter) was inserted 20 mm into the rectum. The mouse was held at the base of the tail during this determination, and the thermistor probe was left in place until a constant reading was obtained for 15 s. The effects of the investigated compounds on the SIH response were investigated after administration of the compounds at doses of 5, 10 and 20 mg/kg.

mGlu4 receptor = biological target: T2, mGlu4 receptor (Homo sapiens, UniProt Q14833); experiment: forskolin-induced cAMP assay, agonist mode, T-REx 293 cells; type: cell-based
T2 construct: mGlu4 receptor NM_000841, mGlu7 receptor NM_000844.2, and mGlu8 receptor NM_000845; expressed in transfected cells; host or cells: T-REx 293
T2 sequence (Q14833 33-912): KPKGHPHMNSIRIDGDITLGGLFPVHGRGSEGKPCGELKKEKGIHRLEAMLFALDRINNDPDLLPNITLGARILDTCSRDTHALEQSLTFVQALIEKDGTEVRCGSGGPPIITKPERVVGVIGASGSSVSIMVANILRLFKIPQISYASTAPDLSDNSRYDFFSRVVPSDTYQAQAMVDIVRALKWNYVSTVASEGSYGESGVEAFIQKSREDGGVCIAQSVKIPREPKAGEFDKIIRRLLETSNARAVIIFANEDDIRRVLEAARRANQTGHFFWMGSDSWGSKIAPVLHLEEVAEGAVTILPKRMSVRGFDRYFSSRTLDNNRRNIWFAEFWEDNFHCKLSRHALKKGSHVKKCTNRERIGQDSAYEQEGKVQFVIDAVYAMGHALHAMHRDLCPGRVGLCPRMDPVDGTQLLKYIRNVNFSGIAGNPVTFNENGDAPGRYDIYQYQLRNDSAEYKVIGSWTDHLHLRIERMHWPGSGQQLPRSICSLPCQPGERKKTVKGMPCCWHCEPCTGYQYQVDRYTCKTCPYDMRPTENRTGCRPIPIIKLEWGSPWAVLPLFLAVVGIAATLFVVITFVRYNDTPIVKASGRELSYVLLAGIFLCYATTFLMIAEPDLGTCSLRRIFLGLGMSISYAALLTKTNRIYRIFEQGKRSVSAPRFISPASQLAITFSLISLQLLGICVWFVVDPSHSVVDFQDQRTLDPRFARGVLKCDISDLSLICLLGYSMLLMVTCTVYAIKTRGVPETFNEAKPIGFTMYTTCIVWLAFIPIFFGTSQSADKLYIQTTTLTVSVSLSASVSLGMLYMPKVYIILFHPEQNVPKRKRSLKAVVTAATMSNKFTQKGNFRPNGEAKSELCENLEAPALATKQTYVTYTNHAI
Protocol: as §1, §2

[1] = over the doses 5, 10 and 20 mg/kg i.p.
[2] = 5 mg/kg i.p., 60 min before test
[3] = 20 mg/kg i.p., 60 min before test
[4] = 10 mg/kg i.p., 60 min before test

| SMILES | agonistic activity at mGlu7 receptor (mGlu7 receptor) | effect on SIH response (Albino Swiss mice; [1]) | effect on SIH response (Albino Swiss mice; [2]) | effect on SIH response (Albino Swiss mice; [3]) | EC50 (mGlu4 receptor) [nM] | effect on SIH response (Albino Swiss mice; [4]) |
| --- | --- | --- | --- | --- | --- | --- |
| O=C(Nc1ccc(-c2noc(-c3ccccc3Cl)n2)c(Cl)c1)c1ccccn1 [Compound 52, N-(3-chloro-4-(5-(2-chlorophenyl)-1,2,4-oxadiazol-3-yl)phenyl)picolinamide] | direct agonistic activity | significant anxiolytic- and antipsychotic-like properties; also recorded: significantly reduced SIH responses at all three doses; also recorded: at all doses significantly reduced the SIH response |  |  |  |  |
| O=C(Nc1ccc(-c2noc(-c3ccccc3Cl)n2)c(C(F)(F)F)c1)c1ccccn1 [Compound 60] | direct agonistic activity | significant anxiolytic- and antipsychotic-like properties | reduced the temperature increase caused by stress | reduced the temperature increase caused by stress |  |  |
| COc1cc(NC(=O)c2ccccn2)ccc1-c1noc(-c2ccccc2Cl)n1 [Compound 34] | direct agonistic activity | significant anxiolytic- and antipsychotic-like properties | not effective | effective; also recorded: statistically significant reduction in SIH | 1110 | effective; also recorded: statistically significant reduction in SIH |
| COc1cc(NC(=O)c2ccccn2)ccc1-c1noc(-c2ccccc2F)n1 [Compound 37] | direct agonistic activity | significant anxiolytic- and antipsychotic-like properties |  |  | 3940 | effective; also recorded: weak activity |
